According to patent US9943534B2, “Composition for preventing or treating liver cancer containing ginsenoside F2” (INTELLIGENT SYNTHETIC BIOLOGY CENTER, priority 2016, dated 2018):

What was measured:
Hep3B cells = experiment: Cell survival rate (EZ-CYTOX), human liver cancer cell line; type: cell-based; conditions: 10 to 60 μM, 24 hours, FIG. 1a
Method: (§1) The ginsenoside F2 prepared in Example 1 was treated to Hep3B cells, a human liver cancer cell line, Hepa1-6 cells, a mouse liver cancer cell line, and mouse normal hepatocytes at various concentrations (10 to 60 μM). After 24 hours, the survival rate of the cells was measured using EZ-CYTOX (Daeil Lab Service, Korea), which is used to measure the cell survival rate, according to the experimental method provided by the manufacturer.

Hepa1-6 cells = experiment: Cell survival rate (EZ-CYTOX), mouse liver cancer cell line; type: cell-based; conditions: 10 to 60 μM, 24 hours, FIG. 1b
Method: as §1

mouse normal hepatocytes = experiment: Cell survival rate (EZ-CYTOX), normal hepatocytes; type: cell-based; conditions: 10 to 60 μM, 24 hours, FIG. 1c
Method: as §1

[1] = system: human liver cancer cell line (Hep3B); experiment: Cell death by phase contrast microscopy and DAPI/TUNEL staining; type: cell-based; conditions: 10 to 60 μM, 24 hours
Method: The cell-killing effect of ginsenoside F2 on the human liver cell line (Hep3B) was confirmed using a phase contrast microscope and a fluorescence microscope.
Specifically, the ginsenoside F2 prepared in Example 1 was treated to the human liver cancer cell line (Hep3B) at various concentrations (10 to 60 μM), and after 24 hours, the state of the cells was observed under the phase contrast microscope. Further, the cells were stained using DAPI (4′,6-diamidino-2-phenylindole, Vector laboratory, USA) and TUNEL (terminal deoxyribonucleotidyl transferase mediated dUTP nick end labeling, Roche life science, USA). The staining was carried out according to the method provided by the manufacturer, and the degree of staining was observed under the fluorescence microscope.

[2] = system: mouse liver cancer cell line (Hepa1-6); experiment: Genomic DNA fragmentation by gel electrophoresis; type: cell-based; conditions: Hepa1-6, 24 hours, FIG. 3
Method: The cell-killing effect of ginsenoside F2 on the mouse liver cancer cell line (Hepa1-6) was confirmed by confirming the degree of DNA degradation.
Specifically, the ginsenoside F2 prepared in Example 1 was treated to the mouse liver cancer cell line (Hepa1-6) at various concentrations ([…]). After 24 hours, the cells were harvested, and the genomic DNA was extracted using a genomic DNA extraction kit (iNtRON, USA) according to the experimental method provided by the manufacturer, and subsequently, a gel electrophoresis was carried out.

[3] = system: liver cancer-induced mice; experiment: Diethylnitrosamine (DEN)-induced liver cancer formation in mice: size, number, weight of cancer tissues; type: in vivo, mouse; conditions: 50 mg/kg three times a week for 20 weeks, vs vehicle-treated group
Method: (§2) Diethylnitrosamine (DEN), a hepatocarcinogen, was injected intraperitoneally into 14-day-old male mice at a concentration of 20 mg/kg to induce the formation of liver cancer. A vehicle (olive oil) or ginsenoside F2 (50 mg/kg) was treated three times a week from 20 weeks of age, and then 20 weeks later, the mice were sacrificed to confirm the inhibition of liver cancer formation.
The mice sacrificed in Example 3-1 above were cut open ventrally to remove the liver. Then, the size, number, and weight of the cancer tissues of the vehicle-treated group and the ginsenoside F2-treated group were compared.

[4] = system: liver cancer-induced mice; experiment: Serum ALT and AST in liver cancer-induced mice (VetTEST); type: in vivo, mouse; conditions: 50 mg/kg three times a week for 20 weeks, vs vehicle-treated group
Method: as §2
Blood was collected from the abdominal aorta of the mice sacrificed in Example 3-1 above and centrifuged at 3,300 rpm for 10 minutes using a centrifuge, and then the serum was isolated only. Subsequently, the alanine aminotransferase (ALT), aspartate aminotransferase (AST) and triglyceride were measured by a VetTEST® (IDEXX, USA) according to the experimental method provided by the manufacturer using a kit provided by IDEXX Laboratories (USA).

[5] = system: liver cancer-induced mice; experiment: Liver histology (H&E) and flow cytometry of liver immune cells in liver cancer-induced mice; type: in vivo, mouse; conditions: vs vehicle-treated group
Method: as §2
The mice sacrificed in Example 3-1 above were cut open ventrally to remove the liver, and then H&E ([…] and eosin) staining was performed to observe the histological changes of the liver.
In order to specifically measure the activity of the immune cells, the immune cells were isolated from the removed liver, and the stained cells were analyzed via a flow cytometer (LSRII, BD bioscience) using the markers shown in Table 1.

[6] = 50 mg/kg three times a week for 20 weeks, FIG. 6a

## CC(C)=CCC[C@](C)(O[C@@H]1O[C@H](CO)[C@@H](O)[C@H](O)[C@H]1O)[C@H]1CC[C@]2(C)[C@@H]1[C@H](O)C[C@@H]1[C@@]3(C)CC[C@H](O[C@@H]4O[C@H](CO)[C@@H](O)[C@H](O)[C@H]4O)C(C)(C)[C@@H]3CC[C@]12C [ginsenoside F2]
Hep3B cells
  survival rate of human liver cancer cell line (Hep3B): decreased depending on the concentration of ginsenoside F2
Hepa1-6 cells
  survival rate of mouse liver cancer cell line (Hepa1-6): decreased depending on the concentration of ginsenoside F2
Mouse normal hepatocytes
  survival rate of mouse normal hepatocytes: almost no change was observed
[1]; FIG. 2a
  cell death under phase contrast microscope: cell death of human liver cancer cell line (Hep3B) was induced
[1]; fluorescence microscope
  number of cells stained to DAPI: no difference
[1]; fluorescence microscope, FIGS. 2a and 2b
  number of cells stained to TUNEL: increased depending on the concentration of ginsenoside F2
[2]
  fragmented genomic DNA: increased with increasing concentration of ginsenoside F2
[3]
  body weight: no difference
  number of cancer tissues: reduced more than twice
  size of cancer tissues: significantly reduced
  weight of liver tissues: reduced
[4]; FIG. 5a
  serum ALT value: reduced
[4]; FIG. 5b
  serum AST value: reduced
[5]; [6]
  formation of liver cancer (H&E histology): inhibited
  infiltration of immune cells near the liver cancer tissues (H&E): increased
[5]; flow cytometry, FIG. 6b
  number of CD8 T cells in liver: increase
  number of macrophages in liver: increase
  number of natural killer T cells in liver: increase
